Experimental data taken from US9464093B2, “Substituted imidazo[4',5':4,5]cyclopenta[1,2-e]pyrrolo[1,2-a]pyrazines and oxazolo[4',5':4,5]cyclopenta[1,2-e]pyrrolo[1,2-a]pyrazines for treating brain cancer” (Mayo Foundation for Medical Education and Research, priority 2012, dated 2016).
Entries after “also recorded” stand apart in the source; their conditions may differ.

Key:
Raji lymphoma cells [1] = assay: Raji orthotopic murine CNS lymphoma model; assay type: in vivo, athymic mice; conditions: 1, 2.5 or 5 mg/kg i.p. for four days; vs vehicle control
Procedure: Athymic mice (nu/nu; 8-10 weeks old) were anesthetized with gasiform isofluorane and 25,000 Raji cells transfected with luciferase (as described in in vitro study) were stereotactically injected into the left cerebral hemisphere at coordinates (AP: 0.5 mm, LM: 2.5 mm, DV: 3 mm) from the bregma and skull at a volume of 5 μl and at a rate of 1 μl/min. The needle was left in place for 5 min after injection.
BLI was conducted using a Xenogen Lumina optical imaging system (Caliper Life Sciences, Hopkinton, Mass.). Mice were anesthetized with isofluorane before intraperitoneal injections of luciferin at a dose of 150 mg/kg, providing a saturating substrate concentration for luciferase enzyme. Peak luminescent signals were recorded 10 minutes after luciferin injection. Regions of interest encompassing the intracranial area of signal were defined using Living Image software, and the total photons/s/steradian/cm^2 was recorded.
Raji murine CNS lymphoma model was created as described in in vivo study section. After bioluminesence imaging (BLI) scanning on day 4 post intracerebral injection, animals were randomly assigned to four different groups. […] […] BLI was used for real time monitoring of tumor growth. Differences in tumor growth were statistically analyzed by ANOVA.

Raji lymphoma cells [2] = assay: Ex vivo murine brain slice invasion assay; assay type: cell-based; conditions: cells pretreated with 100 nM for four days; day 5 post-incubation; vs DMSO
Procedure: The impact of Agelastatin A on the brain invasiveness of Raji B lymphoma cells was assessed ex vivo using a modified murine brain slice invasion assay. Briefly, these cells were first pre-transfected with luciferase (SP-DiI; Molecular Probes) just prior to invasion assays. Slice cultures of whole brains were produced from C57 mice. Two-month-old male C57BL/6J mice were sacrificed by CO2 inhalation. Mice brains were removed, placed into sterile ice-cold PBS, and then coronally sectioned with a 1 mm coronal brain matrix into 1 mm slices at +2.00 to −1.00 bregma. Brain slices were placed aseptically onto transwell (8 μm pore size) membranes in six-well dishes. Culture media (DMEM, 10% FCS, […], 100 U/ml penicillin, 100 μg/ml streptomycin, and 2.5 μg/ml amphotericin B) was added into each well to a point just below that which would cover the brain slice. […] Cells were allowed to attach to the brain surface for one hour before the media was adjusted to just cover the surface of the slice. After 5 days incubation, the extent of lymphoma cell invasion into the brain slice was quantitated by bioluminesence imaging (BLI) in both slice and media. Brain slices were fixed in 4% paraformaldehyde for CD20 staining to identify Raji cells, which had invaded the brain slices. […]

osteopontin mRNA = assay: Osteopontin mRNA real-time PCR; assay type: cell-based; conditions: at 12 h; normalized to GAPDH
Procedure: B lymphoma cells were grown at 1×10^6 cells in complete media. Cells were harvested by centrifugation, and total RNA was extracted by Trizol and PureLink kit as described by the manufacturer (Invitrogen: Carlsbad, Calif.). Residual genomic DNA contamination was removed by DNA-Free kit (Applied Biosystems: Carlsbad, Calif.). Total RNA was converted to cDNA using the High Capacity Reverse Transciption kit (Applied Biosystems: Carlsbad, Calif.) and diluted to 4 ng/μl RNA with nuclease-free water.
Ct values were determined by instrument software and relative osteopontin mRNA values were normalized to GAPDH. Significant difference of Ct values was determined using a two-tailed Student's T-test.

Raji lymphoma cells [3] = assay: Cell proliferation assay, Raji lymphoma cells (Example 3); assay type: cell-based; conditions: 100, 500, or 1,000 nM; counted on the third day; vs vehicle
Procedure: Raji cells were purchased from American Tissue Culture (Manassas, Va.). […] Raji cells infected with lentivirus constructs were grown in selection media containing 2.5 μg/ml puromycin. For experiments, unless specified otherwise, all cells were switched back to maintenance media.
Two-tailed student T-test was used to analyze significant difference.

NFkB signaling = assay: NFkB reporter assay in Raji cells; assay type: cell-based; conditions: 100 nM and 500 nM for 48 hours
Description: 10^5 Raji cells were co-transfected overnight with a Cignal firefly luciferase-expressing NFkB reporter plasmid (NFkBr; SA Biosciences) together with a constitutively expressed Renilla luciferase reporter plasmid containing a CMV promoter. A promoterless vector (Neg-Luc) was co-transfected with the Renilla reporter for control. […] Data are presented as a ratio of firefly-to-Renilla luciferase luminescence.

In the case of CN1C(=O)N[C@H]2[C@@H]3NC(=O)c4ccc(Br)n4[C@@H]3C[C@]21O [AA, agelastatin A, reference compound], the “CNS lymphoma tumor growth (BLI)” value (Raji lymphoma cells [1]) is reported as “significantly decreased the tumor growth; also recorded: therapeutic effect of AA treatment on the CNS lymphoma growth”, the “survival (Kaplan-Meier)” value (Raji lymphoma cells [1]) is reported as “significantly prolonged the survival; also recorded: survival prolongation” and the “brain invasiveness of Raji lymphoma cells (ex vivo brain slice)” value (Raji lymphoma cells [2]) is reported as “significantly decreased and disabled the brain invasiveness; also recorded: decreases the brain invasiveness of Raji lymphoma cells; also recorded: No AA-treated lymphoma cells were found in the brain slice”. For the same molecule, the “expression of OPN messenger RNA (PCR)” value (osteopontin mRNA) was “transcriptionally downregulating osteopontin; also recorded: decreases the expression of OPN messenger RNA”, the “Raji lymphoma cell proliferation” value (Raji lymphoma cells [3]) was “significantly suppressed proliferation; also recorded: decreases Raji lymphoma cell proliferation” and the “NFkB signaling in Raji cells (reporter assay)” value (NFkB signaling) was “significantly downregulated NFkB signaling; also recorded: attenuates the NFkB signaling”.
